In brackets after ≈: the same amount, converted by molar mass.
Legend:
K562 = experiment: Cytotoxicity against human K562 cells after 24 hrs by MTT assay; assay type: functional, cell-based
U-937 = experiment: Cytotoxicity against human U937 cells after 24 hrs by MTT assay; assay type: functional, cell-based; conditions: U-937, 24 h
[1] = Inhibition of NF-kappaB activity in TNFalpha-stimulated human K562 cells after 24 hrs by luciferase reporter gene assay; assay type: cell-based; conditions: K562, 24 h
Jurkat = experiment: Cytotoxicity against human Jurkat cells after 24 hrs by MTT assay; assay type: functional, cell-based
[2] = tested on: Trypanosoma brucei brucei; experiment: Antitrypanosomal activity against Trypanosoma brucei brucei S427 after 48 hrs by alamar blue assay; assay type: functional; conditions: S427, 48 h
[3] = Homo sapiens, K562, 24 h, read-out: IC50

| SMILES | IC50 (K562; [3]) | IC50 (U-937) | IC50 [1] | IC50 (Jurkat) | MIC [2] | IC50 (K562; k562) |
| --- | --- | --- | --- | --- | --- | --- |
| C/C=C/C=C/C(=O)C1=C(O)[C@@]2(C)[C@H]3C(C(=O)/C=C/C=C/C)=C(O)[C@@]4(C)[C@@H]1[C@]1(C)O[C@@]4(O)[C@@]3(C)O[C@@]12O [TRICHODIMEROL] | 74.4 µM | 16.5 µM | 47.8 µM | 28.5 µM | 6.29 µM (≈ 3.12 µg/mL) |  |
| C=C1CC[C@@H]2C(C)(C)CCC[C@@]2(C)[C@@H]1CC/C(C)=C/Cn1c[n+](C)c2ncnc(N)c21 [AGELASINE D] |  |  |  |  | 14.8 µM |  |
| C[C@H]1CCC[C@H]2O[C@@H]2C(=O)c2c(O)cc(O)cc2CC(=O)O1 |  |  |  |  | > 100 µM |  |
| C[S+]([O-])c1cccc2ccc(=O)oc12 (configuration not stated) [SULFIMARINE] |  |  |  |  | > 100 µM |  |
| Cc1ccc(C(=O)Nc2ccc(S(=O)(=O)O)c3cc(S(=O)(=O)O)cc(S(=O)(=O)O)c23)cc1NC(=O)c1cccc(NC(=O)Nc2cccc(C(=O)Nc3cc(C(=O)Nc4ccc(S(=O)(=O)O)c5cc(S(=O)(=O)O)cc(S(=O)(=O)O)c45)ccc3C)c2)c1 [SURAMIN] |  |  |  |  | 0.06 µM (≈ 0.0778 µg/mL) |  |
| COc1cc(C)cc2c1C(=O)c1c(O)cc(O)cc1C2=O [1-O-METHYLEMODIN] |  | 88.6 µM | > 100 µM | > 100 µM | 11 µM (≈ 3.12 µg/mL) | Not Active |
| CO[C@@H]1CCC[C@H](C)OC(=O)Cc2cc(O)cc(O)c2C(=O)C1 [11BETA-METHOXYCURVULARIN] | 12.4 µM | 1.8 µM | 4.7 µM | 3.9 µM | 4.96 µM (≈ 1.6 µg/mL) |  |
| COc1cc(CO)cc2c1C(=O)c1c(O)cc(O)cc1C2=O [CARVIOLIN] |  | > 100 µM | > 100 µM | > 100 µM | 41.7 µM (≈ 12.5 µg/mL) | Not Active |
| COc1cc(C)cc2c1C(=O)c1c(O)cc(O)c(Cl)c1[C@H]2[C@H]1c2cc(C)cc(OC)c2C(=O)c2c(O)cc(O)c(Cl)c21 [NEOBULGARONE E] | > 100 µM | 47.6 µM | 46 µM | 82.4 µM | > 100 µM |  |
| COc1cc(C)cc2c1C(=O)c1c(O)cc(O)c(Cl)c1C2O (configuration not stated) |  |  |  |  | 9.75 µM (≈ 3.13 µg/mL) |  |
| CO[C@H]1CCC[C@H](C)OC(=O)Cc2cc(O)cc(O)c2C(=O)C1 [11ALPHA-METHOXYCURVULARIN] | 41.1 µM | 4.6 µM | 10.1 µM | 2.3 µM | 9.68 µM (≈ 3.12 µg/mL) |  |
| Cc1cc(=O)c2c(C)cc(O)cc2o1 |  |  |  |  | > 100 µM |  |
| C[C@H]1CCC/C=C\C(=O)c2c(O)cc(O)cc2CC(=O)O1 |  |  |  |  | > 100 µM |  |
| COc1cc(CO)cc2c1C(=O)c1c(O)cc(O)c(Cl)c1C2=O | 40.1 µM | 22 µM | 16 µM | 28.4 µM | 18.7 µM (≈ 6.26 µg/mL) |  |
| C[C@H]1CCC/C=C/C(=O)c2c(O)cc(O)cc2CC(=O)O1 [DEHYDROCURVULARIN] | 37 µM | 2.5 µM | 5.6 µM | 5.5 µM | > 100 µM |  |
| COc1cc(C)cc2c1C(=O)c1c(O)cc(O)c(Cl)c1C2=O | 24.8 µM | 7.6 µM | 1.6 µM | 13.3 µM | 78.6 µM (≈ 25.1 µg/mL) |  |
| COc1cc(C)cc2c1C(=O)c1c(O)cc(O)c(Cl)c1[C@H]2[C@H]1c2cc(CO)cc(OC)c2C(=O)c2c(O)cc(O)c(Cl)c21 [NEOBULGARONE G] |  | > 100 µM | > 100 µM | > 100 µM | > 100 µM | Not Active |
